Data published in patent US11912701B2, “Protein kinase inhibitors for promoting liver regeneration or reducing or preventing hepatocyte death” (HEPAREGENIX GMBH, priority 2018, dated 2024).
pIC50: −log10 of the molar value.

Columns and labels:
[1] = molecular target: T1, MKK4 (Homo sapiens, UniProt P45985); assay: 33PanQinase enzyme assay, MKK4; format: biochemical; conditions: assay 'IC50'; read-out: Potency MKK4 (IC50)
T1 construct: purchased ProQinase GmbH, Freiburg, Germany (33PanQinase Assay Service)
T1 sequence (P45985 1-399): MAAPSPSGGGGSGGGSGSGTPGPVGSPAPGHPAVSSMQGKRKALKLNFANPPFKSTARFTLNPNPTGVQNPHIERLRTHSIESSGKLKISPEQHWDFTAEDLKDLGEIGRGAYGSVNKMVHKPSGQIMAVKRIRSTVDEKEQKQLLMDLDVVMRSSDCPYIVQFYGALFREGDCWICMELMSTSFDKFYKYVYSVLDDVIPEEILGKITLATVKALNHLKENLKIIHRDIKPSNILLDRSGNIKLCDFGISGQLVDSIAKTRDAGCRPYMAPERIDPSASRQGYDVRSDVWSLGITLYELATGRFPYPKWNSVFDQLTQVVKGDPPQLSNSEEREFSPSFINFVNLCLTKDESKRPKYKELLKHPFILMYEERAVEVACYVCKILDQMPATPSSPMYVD
Method in brief: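 Inhibition measured as 33Pi transfer to substrate after a 60-min, 30 °C reaction, acid-stopped and scintillation-counted.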

[2] = molecular target: T2, MKK7 (Homo sapiens, UniProt O14733); assay: 33PanQinase enzyme assay, MKK7; format: biochemical; set-up: purchased ProQinase GmbH, Freiburg, Germany (33PanQinase Assay Service); conditions: ratio IC50(MKK7)/IC50(MKK4)
T2 sequence (O14733 1-419): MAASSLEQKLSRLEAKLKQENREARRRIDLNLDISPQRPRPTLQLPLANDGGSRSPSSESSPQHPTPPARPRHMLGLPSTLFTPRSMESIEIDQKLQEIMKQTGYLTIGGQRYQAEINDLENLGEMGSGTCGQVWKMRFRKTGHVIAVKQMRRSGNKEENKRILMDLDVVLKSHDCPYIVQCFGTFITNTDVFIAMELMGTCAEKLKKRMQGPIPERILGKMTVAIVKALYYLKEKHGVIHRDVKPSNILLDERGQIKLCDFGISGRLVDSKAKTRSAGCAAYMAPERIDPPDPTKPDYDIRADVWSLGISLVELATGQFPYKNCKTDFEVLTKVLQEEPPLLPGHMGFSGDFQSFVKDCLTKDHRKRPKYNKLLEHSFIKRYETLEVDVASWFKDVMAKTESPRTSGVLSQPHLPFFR
Method in brief: (§1)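 Off-target selectivity is the ratio IC50(off-target)/IC50(MKK4), with IC50 values from least-squares fitting and single-point data as % residual activity. Reactions of enzyme/substrate mix, ATP and compound ran 60 min at 30° C before H3PO4 stop; ^33P incorporation read on a scintillation counter.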

[3] = molecular target: T3, JNK1 (Homo sapiens, UniProt P45983); assay: KINOMEscan competition binding assay, JNK1; set-up: M1/Q384; host or cells: HEK-293; conditions: ratio PoC (off-target)/PoC (MKK4)
Method in brief: (§2)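 DNA-tagged kinases expressed in HEK-293 cells compete between immobilized ligand on blocked beads and test compound at 100 nM; kinase retained on beads quantified by qPCR of the tag.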
Target sequence in this assay (P45983 1-384 isoform P45983-2): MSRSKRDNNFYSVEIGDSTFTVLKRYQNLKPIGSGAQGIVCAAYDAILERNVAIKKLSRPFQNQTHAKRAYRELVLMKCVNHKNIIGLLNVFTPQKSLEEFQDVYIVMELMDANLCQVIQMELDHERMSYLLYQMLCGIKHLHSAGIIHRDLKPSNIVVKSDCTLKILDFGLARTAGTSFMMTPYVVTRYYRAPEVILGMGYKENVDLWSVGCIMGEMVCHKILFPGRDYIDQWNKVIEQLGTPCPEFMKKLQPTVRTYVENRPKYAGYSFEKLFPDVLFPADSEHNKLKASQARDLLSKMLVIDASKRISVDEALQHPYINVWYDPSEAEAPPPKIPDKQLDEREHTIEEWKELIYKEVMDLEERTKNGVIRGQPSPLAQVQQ

[4] = molecular target: T2, MKK7; assay: KINOMEscan competition binding assay, MKK7; set-up: M1/R419; host or cells: HEK-293; conditions: ratio PoC (off-target)/PoC (MKK4)
Method in brief: as §2

[5] = molecular target: T4, BRaf (Homo sapiens, UniProt P15056); assay: 33PanQinase enzyme assay, BRaf; format: biochemical; conditions: ratio IC50(BRaf)/IC50(MKK4)
T4 construct: purchased ProQinase GmbH, Freiburg, Germany (33PanQinase Assay Service)
Method in brief: as §1

[6] = molecular target: T3, JNK1; assay: 33PanQinase enzyme assay, JNK1; format: biochemical; set-up: purchased ProQinase GmbH, Freiburg, Germany (33PanQinase Assay Service); conditions: ratio IC50(JNK1)/IC50(MKK4)
Method in brief: as §1
Target sequence in this assay (P45983 whole entry): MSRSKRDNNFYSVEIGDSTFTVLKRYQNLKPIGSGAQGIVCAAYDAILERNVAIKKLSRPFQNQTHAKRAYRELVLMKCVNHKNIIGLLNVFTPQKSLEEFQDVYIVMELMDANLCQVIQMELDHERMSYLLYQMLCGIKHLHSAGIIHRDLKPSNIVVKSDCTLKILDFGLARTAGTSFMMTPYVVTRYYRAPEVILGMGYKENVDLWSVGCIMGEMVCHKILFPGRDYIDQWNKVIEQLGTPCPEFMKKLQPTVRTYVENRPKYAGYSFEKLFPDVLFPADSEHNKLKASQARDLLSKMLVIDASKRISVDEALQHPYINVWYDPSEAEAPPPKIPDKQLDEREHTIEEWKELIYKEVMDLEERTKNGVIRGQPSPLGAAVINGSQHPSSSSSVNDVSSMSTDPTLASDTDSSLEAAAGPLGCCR

[7] = molecular target: T4, BRaf; assay: KINOMEscan competition binding assay, BRaf; conditions: ratio PoC (off-target)/PoC (MKK4)
Method in brief: as §2

[8] = molecular target: T5, MKK4 (Homo sapiens, UniProt P45985); assay: KINOMEscan competition binding assay, MKK4; conditions: residual percent of control binding (PoC) at 100 nM
T5 construct: S84/D399; host or cells: HEK-293
T5 sequence (P45985 84-399): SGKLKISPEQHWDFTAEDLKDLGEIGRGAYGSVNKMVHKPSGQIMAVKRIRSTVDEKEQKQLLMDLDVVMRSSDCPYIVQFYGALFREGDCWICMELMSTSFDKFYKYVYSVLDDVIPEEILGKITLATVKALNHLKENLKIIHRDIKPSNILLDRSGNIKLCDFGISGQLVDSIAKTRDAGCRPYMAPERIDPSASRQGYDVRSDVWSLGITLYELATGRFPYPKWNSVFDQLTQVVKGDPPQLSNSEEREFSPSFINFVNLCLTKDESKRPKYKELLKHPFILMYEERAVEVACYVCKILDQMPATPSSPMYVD
Method in brief: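 Tested at 100 nM and reported as percent of control binding (PoC). MKK4 was produced in HEK-293 cells and DNA-tagged. Displacement from ligand-coated, blocked beads was read by qPCR of eluted kinase.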

T4 sequence (P15056 whole entry, species assumed): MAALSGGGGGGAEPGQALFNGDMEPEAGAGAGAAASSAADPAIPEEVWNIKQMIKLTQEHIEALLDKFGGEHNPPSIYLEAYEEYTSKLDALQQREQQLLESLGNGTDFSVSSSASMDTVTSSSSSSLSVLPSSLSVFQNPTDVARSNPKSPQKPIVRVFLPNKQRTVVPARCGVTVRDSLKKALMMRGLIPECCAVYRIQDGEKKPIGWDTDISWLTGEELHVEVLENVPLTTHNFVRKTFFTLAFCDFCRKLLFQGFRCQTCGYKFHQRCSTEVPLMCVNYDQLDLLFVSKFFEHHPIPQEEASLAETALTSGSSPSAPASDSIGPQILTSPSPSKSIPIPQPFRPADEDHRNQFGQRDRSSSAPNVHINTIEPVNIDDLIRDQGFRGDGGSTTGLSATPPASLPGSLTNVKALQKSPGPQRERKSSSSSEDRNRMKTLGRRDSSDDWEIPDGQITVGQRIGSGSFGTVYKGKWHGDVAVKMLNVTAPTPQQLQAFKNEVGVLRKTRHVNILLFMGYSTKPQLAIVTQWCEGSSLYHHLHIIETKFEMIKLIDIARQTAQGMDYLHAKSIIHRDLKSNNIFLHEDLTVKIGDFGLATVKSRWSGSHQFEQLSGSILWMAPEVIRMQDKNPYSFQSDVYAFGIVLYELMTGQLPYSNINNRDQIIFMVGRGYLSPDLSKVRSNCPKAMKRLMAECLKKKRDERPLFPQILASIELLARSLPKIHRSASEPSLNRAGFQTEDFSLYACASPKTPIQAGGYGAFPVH

Row | SMILES | pIC50 [1] | Selectivity IVIKK7, IC50(off-target)/IC50(MKK4) [2] | selectivity based on % Ctrl @100 nM vs. JNK1 [3] | selectivity based on % Ctrl @100 nM vs. MKK7 [4] | Selectivity Braf, IC50(off-target)/IC50(MKK4) [5] | Selectivity JNK1, IC50(off-target)/IC50(MKK4) [6] | selectivity based on % Ctrl @100 nM vs. Braf [7] | MKK4 [% Ctrl @ 100 nM [8]
1 | CCCS(=O)(=O)Nc1ccc(F)c(C(=O)c2c[nH]c3ncc(-c4cccc(O)c4)cc23)c1F [Example 101, N-(2,4-difluoro-3-(5-(3-hydroxyphenyl)-1H-pyrrolo[2,3-b]pyridine-3-carbonyl)phenyl)propane-1-sulfonamide] | 6.00 to 7.00 | +++ (IC50(off-target)/IC50(MKK4) > 100) | ++ (100 ≥ ratio > 10) | ++ (100 ≥ ratio > 10) | ◯ (3 ≥ IC50(off-target)/IC50(MKK4)) | ◯ (3 ≥ IC50(off-target)/IC50(MKK4)) | ◯ (3 ≥ Ratio) | ++ (1 ≤ PoC < 3)
2 | CCCS(=O)(=O)Nc1ccc(F)c(C(=O)c2c[nH]c3ncc(-c4ccc(OC)c(OC)c4)cc23)c1F [Example 105, N-(3-(5-(3,4-dimethoxyphenyl)-1H-pyrrolo[2,3-b]pyridine-3-carbonyl)-2,4-difluorophenyl)propane-1-sulfonamide] | 6.00 to 7.00 | +++ (IC50(off-target)/IC50(MKK4) > 100) | ++ (100 ≥ ratio > 10) | ++ (100 ≥ ratio > 10) | ◯ (3 ≥ IC50(off-target)/IC50(MKK4)) | ++ (100 ≥ IC50(off-target)/IC50(MKK4) > 10) | ◯ (3 ≥ Ratio) | ++ (1 ≤ PoC < 3)
3 | CCCS(=O)(=O)Nc1ccc(F)c(C(=O)c2c[nH]c3ncc(-c4ccc(C(F)(F)F)cc4)cc23)c1F [Example 106, N-(2,4-difluoro-3-(5-(4-(trifluoromethyl)phenyl)-1H-pyrrolo[2,3-b]pyridine-3-carbonyl)phenyl)propane-1-sulfonamide] | 6.00 to 7.00 | +++ (IC50(off-target)/IC50(MKK4) > 100) | + (10 ≥ ratio > 3) | + (10 ≥ ratio > 3) | ◯ (3 ≥ IC50(off-target)/IC50(MKK4)) | + (10 ≥ IC50(off-target)/IC50(MKK4) > 3) | ◯ (3 ≥ Ratio) | + (3 ≤ PoC < 30)
4 | CCCS(=O)(=O)Nc1ccc(F)c(C(=O)c2c[nH]c3ncc(-c4ccc([N+](=O)[O-])cc4)cc23)c1F [Example 107, N-(2,4-difluoro-3-(5-(4-nitrophenyl)-1H-pyrrolo[2,3-b]pyridine-3-carbonyl)phenyl)propane-1-sulfonamide] | 6.00 to 7.00 | +++ (IC50(off-target)/IC50(MKK4) > 100) | ++ (100 ≥ ratio > 10) | ++ (100 ≥ ratio > 10) | ◯ (3 ≥ IC50(off-target)/IC50(MKK4)) | + (10 ≥ IC50(off-target)/IC50(MKK4) > 3) | + (10 ≥ ratio > 3) | + (3 ≤ PoC < 30)
5 | CCCS(=O)(=O)Nc1ccc(F)c(C(=O)c2c[nH]c3ncc(-c4ccc(C(=O)O)cc4)cc23)c1F [Example 108, 4-(3-(2,6-difluoro-3-(propylsulfonamido)benzoyl)-1H-pyrrolo[2,3-b]pyridin-5-yl)benzoic acid] | > 7.00 | +++ (IC50(off-target)/IC50(MKK4) > 100) | +++ (Ratio > 100) | +++ (Ratio > 100) | ◯ (3 ≥ IC50(off-target)/IC50(MKK4)) | + (10 ≥ IC50(off-target)/IC50(MKK4) > 3) | ++ (100 ≥ ratio > 10) | +++ (PoC < 1)
6 | CCCS(=O)(=O)Nc1ccc(F)c(C(=O)c2c[nH]c3ncc(-c4ccc(C(N)=O)cc4)cc23)c1F [Example 109, 4-(3-(2,6-difluoro-3-(propylsulfonamido)benzoyl)-1H-pyrrolo[2,3-b]pyridin-5-yl)benzamide] | 6.00 to 7.00 | +++ (IC50(off-target)/IC50(MKK4) > 100) | +++ (Ratio > 100) | +++ (Ratio > 100) | ◯ (3 ≥ IC50(off-target)/IC50(MKK4)) | + (10 ≥ IC50(off-target)/IC50(MKK4) > 3) | + (10 ≥ ratio > 3) | +++ (PoC < 1)
7 | CCCS(=O)(=O)Nc1ccc(F)c(C(=O)c2c[nH]c3ncc(-c4ccc(OC(F)(F)F)cc4)cc23)c1F [Example 111, N-(2,4-difluoro-3-(5-(4-(trifluoromethoxy)phenyl)-1H-pyrrolo[2,3-b]pyridine-3-carbonyl)phenyl)propane-1-sulfonamide] | 6.00 to 7.00 | +++ (IC50(off-target)/IC50(MKK4) > 100) | ◯ (3 ≥ Ratio) | ◯ (3 ≥ Ratio) | ◯ (3 ≥ IC50(off-target)/IC50(MKK4)) | + (10 ≥ IC50(off-target)/IC50(MKK4) > 3) | ◯ (3 ≥ Ratio) | ◯ (30 ≤ PoC)

Now from value to compound:

Row | pIC50 [1] | Selectivity IVIKK7, IC50(off-target)/IC50(MKK4) [2] | selectivity based on % Ctrl @100 nM vs. JNK1 [3] | selectivity based on % Ctrl @100 nM vs. MKK7 [4] | Selectivity Braf, IC50(off-target)/IC50(MKK4) [5] | Selectivity JNK1, IC50(off-target)/IC50(MKK4) [6] | selectivity based on % Ctrl @100 nM vs. Braf [7] | MKK4 [% Ctrl @ 100 nM [8] | SMILES
8 | 6.00 to 7.00 | +++ (IC50(off-target)/IC50(MKK4) > 100) | ++ (100 ≥ ratio > 10) | ++ (100 ≥ ratio > 10) | ◯ (3 ≥ IC50(off-target)/IC50(MKK4)) | + (10 ≥ IC50(off-target)/IC50(MKK4) > 3) | ++ (100 ≥ ratio > 10) | ++ (1 ≤ PoC < 3) | CCCS(=O)(=O)Nc1ccc(F)c(C(=O)c2c[nH]c3ncc(-c4ccccc4OC)cc23)c1F [Example 102, N-(2,4-difluoro-3-(5-(2-methoxyphenyl)-1H-pyrrolo[2,3-b]pyridine-3-carbonyl)phenyl)propane-1-sulfonamide]
9 | 6.00 to 7.00 | +++ (IC50(off-target)/IC50(MKK4) > 100) | ++ (100 ≥ ratio > 10) | ++ (100 ≥ ratio > 10) | ◯ (3 ≥ IC50(off-target)/IC50(MKK4)) | + (10 ≥ IC50(off-target)/IC50(MKK4) > 3) | ◯ (3 ≥ Ratio) | + (3 ≤ PoC < 30) | CCCS(=O)(=O)Nc1ccc(F)c(C(=O)c2c[nH]c3ncc(-c4cccc(OC)c4)cc23)c1F [Example 103, N-(2,4-difluoro-3-(5-(3-methoxyphenyl)-1H-pyrrolo[2,3-b]pyridine-3-carbonyl)phenyl)propane-1-sulfonamide]
